Test results: the NIST ThermoML archive (doi:10.1016/j.fluid.2017.10.023)

Test: xn = mol fraction of the nth substance listed
Settings: 313.15 K; for surface tension liquid-gas: Pendant drop shape; for mass density: Liquid, Vibrating tube method

CCCCC [pentane] + C
Settings | mass density [kg/m3] | surface tension liquid-gas [mN/m]
x2 = 0.048 | 594.4 | 12
x2 = 0.101 | 581 | 10.13
x2 = 0.181 | 558.8 | 7.61
x2 = 0.263 | 533.1 | 5.37
x2 = 0.351 | 501.8 | 3.26
x2 = 0.43 | 466.3 | 1.68
x2 = 0.501 | 431.5 | 0.761
